Calls of active or inactive are those of the source. The calls are words filed in the database; no cut-off is given here.
Legend:
Homo sapiens [1] = species: Homo sapiens; assay: Antioxidant activity against CuSO4-induced human LDL oxidation assessed as increase in lag time at 0.10 uM by spectrophotometric analysis; type: functional
Mus musculus [2] = assay: Antidyslipidemic activity in high-fat diet (35.5% w/w fat) fed SKH-2 mouse assessed as HDL level in plasma at 56 umol/kg, ip bid for 28 days measured on day 28; type: functional, organism-based
Homo sapiens [3] = species: Homo sapiens; assay: Antioxidant activity against CuSO4-induced human LDL oxidation assessed as lag time at 0.10 uM by spectrophotometric analysis (reference value: 122 mins); type: functional
Rattus norvegicus [4] = assay: In vivo antidyslipidemic activity against Triton WR 1339-induced hyperlipidemic Wistar rat model assessed as decrease in total cholesterol level in plasma at 56 umol/kg, ip administered as single dose 1 hr after Triton WR 1339 challenge measured after 24 hrs; type: functional
Mus musculus [5] = assay: Antidyslipidemic activity in high-fat diet (35.5% w/w fat) fed SKH-2 mouse assessed as HDL/LDL ratio in plasma at 56 umol/kg, ip bid for 28 days measured on day 28 (reference value: 0.5 no unit); type: functional
Homo sapiens [6] = species: Homo sapiens; assay: Antioxidant activity against CuSO4-induced human LDL oxidation assessed as inhibition of rate of conjugate diene formation at 1 uM by spectrophotometric analysis; type: functional
[7] = Antioxidant activity in rat liver microsome membrane assessed as inhibition of lipid peroxidation after 45 mins by TBARS-based spectrophotometric assay; type: functional, microsomes
Homo sapiens [8] = species: Homo sapiens; assay: Antioxidant activity against CuSO4-induced human LDL oxidation assessed as increase in lag time at 1 uM by spectrophotometric analysis; type: functional
Homo sapiens [9] = species: Homo sapiens; assay: Antioxidant activity against CuSO4-induced human LDL oxidation assessed as prolongation of lag time by spectrophotometric analysis; type: functional
Rattus norvegicus [10] = assay: In vivo antidyslipidemic activity against Triton WR 1339-induced hyperlipidemic Wistar rat model assessed as decrease in triglyceride level in plasma at 56 umol/kg, ip administered as single dose 1 hr after Triton WR 1339 challenge measured after 24 hrs; type: functional
Mus musculus [11] = assay: Antidyslipidemic activity in high-fat diet (35.5% w/w fat) fed SKH-2 mouse assessed as triglyceride level in plasma at 56 umol/kg, ip bid for 28 days measured on day 28; type: functional, organism-based
Mus musculus [12] = assay: In vivo antiinflammatory activity in mouse assessed as decrease in carrageenan-induced paw edema at 0.30 mmol/kg, ip administered immediately after carrageenan injection measured after 3.5 hrs; type: functional
Homo sapiens [13] = species: Homo sapiens; assay: Antioxidant activity against CuSO4-induced human LDL oxidation assessed as delta-lag time at 0.50 uM by spectrophotometric analysis; type: functional
Mus musculus [14] = assay: Antidyslipidemic activity in high-fat diet (35.5% w/w fat) fed SKH-2 mouse assessed as decrease in total cholesterol level in plasma at 56 umol/kg, ip bid for 28 days measured on day 28; type: functional; details: SKH-2, Plasma, 672 h
Homo sapiens [15] = species: Homo sapiens; assay: Antioxidant activity against CuSO4-induced human LDL oxidation assessed as inhibition of rate of conjugate diene formation at 0.10 uM by spectrophotometric analysis; type: functional
Homo sapiens [16] = species: Homo sapiens; assay: Antioxidant activity against CuSO4-induced human LDL oxidation assessed as inhibition of rate of conjugate diene formation at 0.50 uM by spectrophotometric analysis; type: functional
Mus musculus [17] = assay: Effect on blood glucose level in high-fat diet (35.5% w/w fat) fed SKH-2 mouse at 56 umol/kg, ip bid for 28 days; type: ADME, organism-based; details: in vivo, 672 h
Homo sapiens [18] = species: Homo sapiens; assay: Antioxidant activity against CuSO4-induced human LDL oxidation assessed as increase in lag time at 0.50 uM by spectrophotometric analysis; type: functional
Glycine max = assay: Inhibition of soybean lipoxygenase using sodium linoleate as substrate up to 100 uM measured for 6 mins
Mus musculus [19] = assay: Effect on body weight in high-fat diet (35.5% w/w fat) fed SKH-2 mouse at 56 umol/kg, ip bid for 28 days; type: ADME, organism-based; details: in vivo, 672 h
[20] = system: Radical scavenging activity; assay: Antioxidant activity assessed as DPPH radical scavenging activity after 30 mins; type: functional
Mus musculus [21] = assay: Antidyslipidemic activity in high-fat diet (35.5% w/w fat) fed SKH-2 mouse assessed as decrease in LDL level in plasma at 56 umol/kg, ip bid for 28 days measured on day 28; type: functional; details: SKH-2, Plasma, 672 h
Mus musculus [22] = assay: In vivo antioxidant activity in high-fat diet (35.5% w/w fat) fed SKH-2 mouse assessed as reduction in malondialdehyde level in plasma at 56 umol/kg, ip bid for 28 days measured on day 28; type: functional; details: SKH-2, Plasma, 672 h
Mus musculus [23] = assay: Effect on food intake high-fat diet fed SKH-2 mouse at 56 umol/kg, ip bid for 28 days; type: ADME, organism-based; details: in vivo, 672 h
Mus musculus [24] = assay: Toxicity in high-fat diet (35.5% w/w fat) fed SKH-2 mouse at 56 umol/kg, ip bid for 28 days by macroscopic analysis; type: organism-based; details: in vivo, 672 h
Squalene synthase = molecular target: T1, Squalene synthase (Rattus norvegicus, UniProt Q02769); assay: (§1) Inhibition of squalene synthase in rat liver microsomes assessed as decrease in conversion of [3H]FPP to squalene
T1 sequence (Q02769 whole entry): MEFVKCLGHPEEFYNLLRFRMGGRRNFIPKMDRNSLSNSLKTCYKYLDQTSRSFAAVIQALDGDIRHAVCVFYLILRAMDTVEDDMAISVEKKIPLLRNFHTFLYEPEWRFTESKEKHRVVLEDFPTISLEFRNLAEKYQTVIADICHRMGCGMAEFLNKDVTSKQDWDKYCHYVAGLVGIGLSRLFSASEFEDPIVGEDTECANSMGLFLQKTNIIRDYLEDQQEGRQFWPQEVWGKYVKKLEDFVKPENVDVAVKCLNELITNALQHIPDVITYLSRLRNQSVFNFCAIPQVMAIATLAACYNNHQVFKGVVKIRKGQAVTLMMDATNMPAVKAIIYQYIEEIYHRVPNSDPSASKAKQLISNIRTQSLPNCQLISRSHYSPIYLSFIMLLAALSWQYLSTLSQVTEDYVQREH

[25] = molecular target: T2, Squalene synthase (Rattus norvegicus) (UniProt Q02769); assay: as §1
T2 sequence (whole entry): T1 sequence (Q02769 whole entry)

Rattus norvegicus [26] = assay: In vivo antidyslipidemic activity against Triton WR 1339-induced hyperlipidemic Wistar rat model assessed as decrease in LDL-cholesterol level in plasma at 56 umol/kg, ip administered as single dose 1 hr after Triton WR 1339 challenge measured after 24 hrs; type: functional
Homo sapiens [27] = species: Homo sapiens; assay: Antioxidant activity against CuSO4-induced human LDL oxidation assessed as lag time at 0.50 uM by spectrophotometric analysis (reference value: 122 mins); type: functional
Homo sapiens [28] = species: Homo sapiens; assay: Antioxidant activity against CuSO4-induced human LDL oxidation assessed as delta-lag time at 0.10 uM by spectrophotometric analysis; type: functional
[29] = molecular target: T3, Prostaglandin G/H synthase 1 (Bos taurus) (UniProt O62664); assay: Inhibition of bovine COX-1 assessed as PGF2-alpha formation using arachidonic acid as substrate at 20 uM by enzyme immunoassay
T3 sequence (whole entry): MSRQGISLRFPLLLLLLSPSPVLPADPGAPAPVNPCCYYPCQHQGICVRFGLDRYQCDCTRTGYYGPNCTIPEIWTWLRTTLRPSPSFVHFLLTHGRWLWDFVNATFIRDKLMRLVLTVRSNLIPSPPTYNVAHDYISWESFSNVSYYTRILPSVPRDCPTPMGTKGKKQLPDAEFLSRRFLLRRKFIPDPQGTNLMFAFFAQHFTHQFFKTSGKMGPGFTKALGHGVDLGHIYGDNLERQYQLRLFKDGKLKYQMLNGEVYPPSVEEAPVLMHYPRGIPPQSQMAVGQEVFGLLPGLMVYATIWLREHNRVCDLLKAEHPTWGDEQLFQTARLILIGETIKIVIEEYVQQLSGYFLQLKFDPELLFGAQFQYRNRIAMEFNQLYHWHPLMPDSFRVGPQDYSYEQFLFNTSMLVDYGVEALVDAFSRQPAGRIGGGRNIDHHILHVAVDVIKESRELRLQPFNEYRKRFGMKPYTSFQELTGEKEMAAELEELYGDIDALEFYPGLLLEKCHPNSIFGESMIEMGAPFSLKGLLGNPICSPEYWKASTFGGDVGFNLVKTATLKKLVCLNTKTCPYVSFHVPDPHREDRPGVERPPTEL

[30] = system: Radical scavenging activity; assay: Antioxidant activity assessed as DPPH radical scavenging activity up to 50 uM measured within 15 mins; type: functional

IC50 [7]: 0.93 µM
inhibition (Glycine max): inactive
IC50 [20]: 188 µM
IC50 (Squalene synthase): 11.9 µM
inhibition [25]: Dose-dependent effect
inhibition [29]: 55%
Structure (SMILES): CN1CC(O)(c2ccc3c(c2)Nc2ccccc2S3)OC2CCCCC21 (racemic)
Activity (Homo sapiens [1]): 0%
Activity (Mus musculus [2]): inactive
TIME (Homo sapiens [3]): 1.82 h
inhibition in vivo at 56 µmol/kg (Rattus norvegicus [4]): 50%
Ratio (Mus musculus [5]): 1.7
inhibition (Homo sapiens [6]): 100%
Activity (Homo sapiens [8]): 100%
Activity (Homo sapiens [9]): Dose-dependent effect
inhibition in vivo at 56 µmol/kg (Rattus norvegicus [10]): 77%
Activity (Mus musculus [11]): inactive
inhibition in vivo at 300 µmol/kg (Mus musculus [12]): 41%
TIME (Homo sapiens [13]): 1.3 h
inhibition in vivo at 56 µmol/kg (Mus musculus [14]): 54%
inhibition (Homo sapiens [15]): 0%
inhibition (Homo sapiens [16]): 41%
Activity (Mus musculus [17]): Non-toxic
Activity (Homo sapiens [18]): 64%
Activity (Mus musculus [19]): Non-toxic
inhibition in vivo at 56 µmol/kg (Mus musculus [21]): 76%
inhibition in vivo at 56 µmol/kg (Mus musculus [22]): 38%
Activity (Mus musculus [23]): Non-toxic
Activity (Mus musculus [24]): Non-toxic
inhibition in vivo at 56 µmol/kg (Rattus norvegicus [26]): 68%
TIME (Homo sapiens [27]): 3.33 h
TIME (Homo sapiens [28]): -0.217 h
Activity [30]: Active

Source: ChEMBL document CHEMBL3232866, “Design of novel potent antihyperlipidemic agents with antioxidant/anti-inflammatory properties: exploiting phenothiazine's strong antioxidant activity” (J Med Chem, 2014)
